Measurements taken from patent US11014890B2, “Forms of (R)-N-(4-chlorophenyl)-2-(cis-4-(6-fluoroquinolin-4-yl)cyclohexyl)propanamide” (SHENZHEN RENTAI PHARMATECH LTD, priority 2018, dated 2021).

Legend:
Assay type in all cases: physicochemical
[1] = accelerated stability test (XRPD comparison); conditions: 40° C. and humidity of 75% RH; XRPD FIGS. 15, 16 and 29
Description: (§1) X-Ray Powder Diffractometer (XRPD)
(§2) Model: Bruker, Germany, BRUKER D8 DISCOVER
(§3) Method: Cu target Ka, voltage 40 KV, current 40 mA, test angle 3-45°, step size 0.02, exposure time 0.2 S, light pipe slit width 1 mm, detector slit width 2.7 mm.
(§4) Model: DHG-9011A (Shanghai Jinghong Experimental Equipment Co., Ltd.) Programmable drug stability constant temperature and humidity tester
Model: CMA-100C (Shanghai Puhan Precision Equipment Co., Ltd.)
(§5) The products prepared in Embodiment 1 and Embodiment 6, and the amorphous active pharmaceutical ingredient were respectively subjected to experimental tests for light stability, high-temperature stability, accelerated stability, high-humidity stability, and water adsorption.

[2] = light stability test (XRPD comparison); conditions: 25° C. and 4500 lux of light, 5 d and 10 d; XRPD FIGS. 11, 12 and 27
Description: as §1, §2, §3
Model: Shanghai Yiheng Scientific Instrument Co., Ltd., MGC-100
as §5
(1) The test products were respectively placed under 25° C. and 4500 lux of light and tested for 5 d and 10 d stability, and the results are shown in FIGS. 11, 12 and 27.

[3] = high-humidity stability test (XRPD comparison); conditions: 25° C. and humidity of 92.5% RH; XRPD FIGS. 32, 33 and 34
Description: as §1, §2, §3, §5

[4] = water adsorption test (DVS); conditions: 25° C., humidity 0-90, 10% per step, weight change less than 0.002% in each step of 10 minutes; FIGS. 17, 18 and 30
Description: DVS Model: SMS, U.K, DVS intrinsic Method: 25° C., 10% humidity per step, the judgment standard is less than 0.002% for 10 min The products prepared in Embodiment 1 and Embodiment 6, and the amorphous active pharmaceutical ingredient were respectively subjected to experimental tests for light stability, high-temperature stability, accelerated stability, high-humidity stability, and water adsorption. (5) The test products were respectively subjected to the water adsorption test, the experimental conditions were as follows: 25° C., humidity 0-90, 10% per step, and the weight change was less than 0.002% in each step of 10 minutes.

[5] = high-temperature stability test (XRPD comparison); conditions: 60° C., 5 d and 10 d; XRPD FIGS. 13, 14 and 28
Description: as §1, §2, §3
Electrothermal Constant-Temperature Dry Box
as §4, §5
(2) The test products were respectively placed under 60° C. and tested for 5 d and 10 d stability, and the results are shown in FIGS. 13, 14 and 28.

| SMILES | accelerated stability [1] | light stability [2] | high-humidity stability [3] | water adsorption (hygroscopic curve, DVS) [4] | high-temperature stability [5] |
| --- | --- | --- | --- | --- | --- |
| C[C@@H](C(=O)Nc1ccc(Cl)cc1)[C@H]1CC[C@@H](c2ccnc3ccc(F)cc32)CC1 [Form C, (R)—N-(4-chlorophenyl)-2-(cis-4-(6-fluoroquinolin-4-yl)cyclohexyl)propanamide] | good stability | good stability | good stability | do not adsorb water | good stability |
| C[C@@H](C(=O)Nc1ccc(Cl)cc1)[C@H]1CC[C@@H](c2ccnc3ccc(F)cc32)CC1 [amorphous active pharmaceutical ingredient] [(R)—N-(4-chlorophenyl)-2-(cis-4-(6-fluoroquinolin-4-yl)cyclohexyl)propanamide, reference compound] | good stability | good stability | good stability | large hygroscopicity | good stability |
| C[C@@H](C(=O)Nc1ccc(Cl)cc1)[C@H]1CC[C@@H](c2ccnc3ccc(F)cc32)CC1 [Form B, (R)—N-(4-chlorophenyl)-2-(cis-4-(6-fluoroquinolin-4-yl)cyclohexyl)propanamide] | good stability | good stability | good stability | do not adsorb water | good stability |
